In patent publication US12384777B2 (Tay Therapeutics Limited, priority 2019, dated 2025):

How the values were obtained:
BRD4 BD1 = BRD4 BD1 (Homo sapiens (Human), UniProt O60885); assay: Bromodomain binding assay (T7 phage display, qPCR), BRD4 BD1; details: read-out: BRD4 BD1 Kd
Protocol: T7 phage strains displaying bromodomains were grown in parallel in 24-well blocks in an E. coli host derived from the BL21 strain. E. coli were grown to log-phase and infected with T7 phage from a frozen stock (multiplicity of infection=0.4) and incubated with shaking at 32° C. until lysis (90-150 min). The lysates were centrifuged (5,000×g) and filtered (0.2 μm) to remove cell debris. Streptavidin-coated magnetic beads were treated with biotinylated small molecule or acetylated peptide ligands for 30 min at RT to generate affinity resins for bromodomain assays. The ligated beads were blocked with excess biotin and washed with blocking buffer (SeaBlock (Pierce), 1% BSA, 0.05% Tween 20, 1 mM DTT) to remove unbound ligand and to reduce non-specific phage binding. Binding reactions were assembled by combining bromodomains, ligated affinity beads, and test compounds in 1× binding buffer (16% SeaBlock, 0.32×PBS, 0.02% BSA, 0.04% Tween 20, 0.004% Sodium azide, 7.9 mM DTT). Test compounds were prepared as 1000× stocks in 100% DMSO and subsequently diluted 1:25 in MEG. The compounds were then diluted directly into the assays such that the final concentrations of DMSO and MEG were 0.1% and 2.4%, respectively. All reactions were performed in polypropylene 384-well plates in a final volume of 0.02 ml. The assay plates were incubated at RT with shaking for 1 hr and the affinity beads were washed with wash buffer (1×PBS, 0.05% Tween 20). The beads were then re-suspended in elution buffer (1×PBS, 0.05% Tween 20, 2 μM non-biotinylated affinity ligand) and incubated at RT with shaking for 30 min. The bromodomain concentration in the eluates was measured by quantitative polymerase chain reaction (qPCR).
An 11-point 3-fold serial dilution of each test compound was prepared in 100% DMSO at 1000× final test concentration. All compounds were distributed by acoustic transfer (non-contact dispensing) in 100% DMSO. The compounds were then diluted directly into the assays such that the final concentration of DMSO was 0.09%. Most dissociation constants were determined using a compound top concentration=10,000 nM. If the initial dissociation constant determined was <0.169 nM (the lowest concentration tested), the measurement was repeated with a serial dilution starting at a lower top concentration.
The same bromodomain assay procedure as that outlined above was used. Example compounds were screened at 30 times their Kd, and results for primary screen binding interactions are reported as ‘% Ctrl’, where lower numbers indicate stronger hits in the matrix.

human liver hepatocytes = assay: Intrinsic clearance in human liver hepatocytes; type: in vitro ADME; details: human cryopreserved hepatocytes, 0.5 μM test compound
Protocol: Vials of human cryopreserved hepatocytes, supplied by Life Technologies, were thawed according to manufacturer's instructions and cells re-suspended in Williams Medium E (WME) containing cell maintenance supplement pack (CM4000, Life Technologies). Hepatocytes were incubated in suspension (0.5 million cells/mL) in 48 well non-collagen coated cell culture plates for 10 min at 37° C., 5% CO2. Upon addition of an equal volume of supplemented WME containing 1 μM test compound, an aliquot of incubation solution was removed to acetonitrile containing internal standard (final concentration 0.5 μM test compound and a cell density of 0.25 million cells/mL). Similarly, aliquots were removed at 3, 6, 9, 15, 30, 45, 60, 90 and 120 min. 100 μL of 80:20 water:acetonitrile was added to all samples and the analysis plate was centrifuged for 10 min at RT prior to injection and analysis of samples by UPLC-MS/MS. The response (area ratio of test compound to internal standard) was plotted against time using an exponential decay model from which rate of disappearance was calculated.

Question: For Cn1cc(-c2scnc2Oc2ccccc2O)ccc1=O [Example 21, 5-(4-(2-hydroxyphenoxy)thiazol-5-yl)-1-methylpyridin-2(1H)-one], which Kd (BRD4 BD1) is on record?
Answer: 0.1 to 1 µM

Question: How did the Kd (BRD4 BD1) turn out when Cn1ccc(-c2cn(C)c(=O)c3[nH]ccc23)c(Oc2ccc(O)cc2)c1=O [Example 35, 4-(3-(4-hydroxyphenoxy)-1-methyl-2-oxo-1,2-dihydropyridin-4-yl)-6-methyl-1,6-dihydro-7H-pyrrolo[2,3-c]pyridin-7-one] was run?
Answer: 0.01 to 0.1 µM

Question: For CCCOc1ccc(O)cc1-c1cn(C)c(=O)c2[nH]ccc12 [Example 9, 4-(5-hydroxy-2-propoxyphenyl)-6-methyl-1,6-dihydro-7H-pyrrolo[2,3-c]pyridin-7-one], which “Intrinsic clearance, % Liver Blood Flow” value (human liver hepatocytes) is on record?
Answer: 95 % Liver Blood Flow

Question: And the Kd (BRD4 BD1)?
Answer: 0.01 to 0.1 µM

Question: With Cn1cc(-c2cc(=O)n(C)cc2Oc2cccc(O)c2)ccc1=O [Example 29, 5′-(3-hydroxyphenoxy)-1,1′-dimethyl-[3,4′-bipyridine]-2′,6(1H,1′H)-dione] as the compound, how does the “Intrinsic clearance, % Liver Blood Flow” value (human liver hepatocytes) read?
Answer: <34 % Liver Blood Flow

Question: And the Kd (BRD4 BD1)?
Answer: 0.01 to 0.1 µM

Question: How did the Kd (BRD4 BD1) turn out when Cn1cc(-c2ccnn2Cc2ccccc2)c2cc[nH]c2c1=O [Example 14, 4-(1-benzyl-1H-pyrazol-5-yl)-6-methyl-1,6-dihydro-7H-pyrrolo[2,3-c]pyridin-7-one] was run?
Answer: 0.1 to 1 µM

Question: How did the Kd (BRD4 BD1) turn out when Cn1cc(-c2scnc2Oc2ccccc2O)c2cc[nH]c2c1=O [Example 19, 4-(4-(2-hydroxyphenoxy)thiazol-5-yl)-6-methyl-1,6-dihydro-7H-pyrrolo[2,3-c]pyridin-7-one] was run?
Answer: 0.1 to 1 µM

Question: COc1cccc(Oc2c(-c3cn(C)c(=O)c4[nH]ccc34)ccn(C)c2=O)c1 [Example 32, 4-(3-(3-methoxyphenoxy)-1-methyl-2-oxo-1,2-dihydropyridin-4-yl)-6-methyl-1,6-dihydro-7H-pyrrolo[2,3-c]pyridin-7-one] was tested. Which “Intrinsic clearance, % Liver Blood Flow” value (human liver hepatocytes) did it give?
Answer: <34 % Liver Blood Flow

Question: What about the Kd (BRD4 BD1) of the same compound?
Answer: 0.01 to 0.1 µM

Question: Which Kd (BRD4 BD1) does the source give for Cn1cc(-c2ccn(C)c(=O)c2Oc2ccc(O)cc2)ccc1=O [Example 38, 3′-(4-hydroxyphenoxy)-1,1′-dimethyl-[3,4′-bipyridine]-2′,6(1H,1′H)-dione] here?
Answer: 0.1 to 1 µM

Question: Which “Intrinsic clearance, % Liver Blood Flow” value (human liver hepatocytes) does the source give for COc1ccc(Oc2cn(C)c(=O)cc2-c2cn(C)c(=O)c3[nH]ccc23)cc1 [Example 25, 4-(5-(4-methoxyphenoxy)-1-methyl-2-oxo-1,2-dihydropyridin-4-yl)-6-methyl-1,6-dihydro-7H-pyrrolo[2,3-c]pyridin-7-one] here?
Answer: 38 % Liver Blood Flow

Question: What about the Kd (BRD4 BD1) of the same compound?
Answer: 0.01 to 0.1 µM

Question: For Cn1cc(Cc2ccccc2)c(-c2cn(C)c(=O)c3[nH]ccc23)cc1=O [Example 13, 4-(5-benzyl-1-methyl-2-oxo-1,2-dihydropyridin-4-yl)-6-methyl-1,6-dihydro-7H-pyrrolo[2,3-c]pyridin-7-one], which “Intrinsic clearance, % Liver Blood Flow” value (human liver hepatocytes) is on record?
Answer: 34 % Liver Blood Flow

Question: What about the Kd (BRD4 BD1) of the same compound?
Answer: 0.1 to 1 µM

Question: For Cn1cc(-c2cc(=O)n(C)cc2Oc2ccc(O)cc2)ccc1=O [Example 28], which “Intrinsic clearance, % Liver Blood Flow” value (human liver hepatocytes) is on record?
Answer: <34 % Liver Blood Flow

Question: What about the Kd (BRD4 BD1) of the same compound?
Answer: 0.1 to 1 µM

Question: COc1ccccc1Oc1c(-c2cn(C)c(=O)c3[nH]ccc23)ccn(C)c1=O [Example 30, 4-(3-(2-methoxyphenoxy)-1-methyl-2-oxo-1,2-dihydropyridin-4-yl)-6-methyl-1,6-dihydro-7H-pyrrolo[2,3-c]pyridin-7-one] was tested. Which “Intrinsic clearance, % Liver Blood Flow” value (human liver hepatocytes) did it give?
Answer: <34 % Liver Blood Flow

Question: What about the Kd (BRD4 BD1) of the same compound?
Answer: 0.01 to 0.1 µM

Question: For COc1ccc(Oc2c(-c3cn(C)c(=O)c4[nH]ccc34)ccn(C)c2=O)cc1 [Example 34, 4-(3-(4-methoxyphenoxy)-1-methyl-2-oxo-1,2-dihydropyridin-4-yl)-6-methyl-1,6-dihydro-7H-pyrrolo[2,3-c]pyridin-7-one], which “Intrinsic clearance, % Liver Blood Flow” value (human liver hepatocytes) is on record?
Answer: <34 % Liver Blood Flow

Question: And the Kd (BRD4 BD1)?
Answer: 0.01 to 0.1 µM

Question: Cn1cc(Oc2ccc(O)cc2)c(-c2cn(C)c(=O)c3[nH]ccc23)cc1=O [Example 26, 4-(5-(4-hydroxyphenoxy)-1-methyl-2-oxo-1,2-dihydropyridin-4-yl)-6-methyl-1,6-dihydro-7H-pyrrolo[2,3-c]pyridin-7-one] was tested. Which “Intrinsic clearance, % Liver Blood Flow” value (human liver hepatocytes) did it give?
Answer: <34 % Liver Blood Flow

Question: What about the Kd (BRD4 BD1) of the same compound?
Answer: 0.01 to 0.1 µM

Question: With Cn1ccc(-c2cn(C)c(=O)c3[nH]ccc23)c(Oc2cccc(O)c2)c1=O [Example 33, 4-(3-(3-hydroxyphenoxy)-1-methyl-2-oxo-1,2-dihydropyridin-4-yl)-6-methyl-1,6-dihydro-7H-pyrrolo[2,3-c]pyridin-7-one] as the compound, how does the “Intrinsic clearance, % Liver Blood Flow” value (human liver hepatocytes) read?
Answer: <34 % Liver Blood Flow

Question: And the Kd (BRD4 BD1)?
Answer: ≤ 0.01 µM

Question: How did the Kd (BRD4 BD1) turn out when Cn1cc(-c2ncnn2Cc2ccccc2)c2cc[nH]c2c1=O [Example 16, 4-(1-benzyl-1H-1,2,4-triazol-5-yl)-6-methyl-1,6-dihydro-7H-pyrrolo[2,3-c]pyridin-7-one] was run?
Answer: 0.1 to 1 µM

Question: Which results are given for COC1CCC(Oc2ccc(O)cc2-c2cn(C)c(=O)c3[nH]ccc23)CC1 (stereo not drawn) [Example 12, 4-(5-hydroxy-2-((4-methoxycyclohexyl)oxy)phenyl)-6-methyl-1,6-dihydro-7H-pyrrolo[2,3-c]pyridin-7-one]?
Answer: Intrinsic clearance, % Liver Blood Flow (human liver hepatocytes): 82 % Liver Blood Flow; Kd (BRD4 BD1): ≤ 0.01 µM

Question: Cn1cc(-c2cc(O)ccc2OC2CCCCC2)c2cc[nH]c2c1=O [Example 11, 4-(2-(cyclohexyloxy)-5-hydroxyphenyl)-6-methyl-1,6-dihydro-7H-pyrrolo[2,3-c]pyridin-7-one] was tested. Which “Intrinsic clearance, % Liver Blood Flow” value (human liver hepatocytes) did it give?
Answer: 97 % Liver Blood Flow

Question: What about the Kd (BRD4 BD1) of the same compound?
Answer: ≤ 0.01 µM

Question: For COc1ccc(Oc2cn(C)c(=O)cc2-c2ccc(=O)n(C)c2)cc1 [Example 27, 5′-(4-methoxyphenoxy)-1,1′-dimethyl-[3,4′-bipyridine]-2′,6(1H,1′H)-dione], which “Intrinsic clearance, % Liver Blood Flow” value (human liver hepatocytes) is on record?
Answer: <34 % Liver Blood Flow

Question: What about the Kd (BRD4 BD1) of the same compound?
Answer: 0.1 to 1 µM

Question: How did the Kd (BRD4 BD1) turn out when Cn1cc(-c2scnc2Cc2ccccc2)c2cc[nH]c2c1=O [Example 17, 4-(4-benzylthiazol-5-yl)-6-methyl-1,6-dihydro-7H-pyrrolo[2,3-c]pyridin-7-one] was run?
Answer: 0.01 to 0.1 µM

Question: How did the Kd (BRD4 BD1) turn out when Cn1cc(-c2ccn(C)c(=O)c2Oc2cccc(O)c2)ccc1=O [Example 37, 3′-(3-hydroxyphenoxy)-1,1′-dimethyl-[3,4′-bipyridine]-2′,6(1H,1′H)-dione] was run?
Answer: 0.1 to 1 µM

Question: Cn1cc(-c2nccn2Cc2ccccc2)c2cc[nH]c2c1=O [Example 15, 4-(1-benzyl-1H-imidazol-2-yl)-6-methyl-1,6-dihydro-7H-pyrrolo[2,3-c]pyridin-7-one] was tested. Which Kd (BRD4 BD1) did it give?
Answer: 0.1 to 1 µM

Question: Which results are given for COc1cccc(Oc2cn(C)c(=O)cc2-c2cn(C)c(=O)c3[nH]ccc23)c1 [Example 23, 4-(5-(3-methoxyphenoxy)-1-methyl-2-oxo-1,2-dihydropyridin-4-yl)-6-methyl-1,6-dihydro-7H-pyrrolo[2,3-c]pyridin-7-one]?
Answer: Intrinsic clearance, % Liver Blood Flow (human liver hepatocytes): 38 % Liver Blood Flow; Kd (BRD4 BD1): 0.01 to 0.1 µM

Question: How did the “Intrinsic clearance, % Liver Blood Flow” value (human liver hepatocytes) turn out when Cn1cc(Oc2ccccc2O)c(-c2cn(C)c(=O)c3[nH]ccc23)cc1=O [Example 22, 4-(5-(2-hydroxyphenoxy)-1-methyl-2-oxo-1,2-dihydropyridin-4-yl)-6-methyl-1,6-dihydro-7H-pyrrolo[2,3-c]pyridin-7-one] was run?
Answer: <34 % Liver Blood Flow

Question: And the Kd (BRD4 BD1)?
Answer: 0.1 to 1 µM

Question: With Cn1cc(-c2ccn(C)c(=O)c2Oc2ccccc2O)ccc1=O [Example 36, 3′-(2-hydroxyphenoxy)-1,1′-dimethyl-[3,4′-bipyridine]-2′,6(1H,1′H)-dione] as the compound, how does the Kd (BRD4 BD1) read?
Answer: 0.1 to 1 µM

Question: What does the source list for Cn1ccc(-c2cn(C)c(=O)c3[nH]ccc23)c(Oc2ccccc2O)c1=O [Example 31, 4-(3-(2-hydroxyphenoxy)-1-methyl-2-oxo-1,2-dihydropyridin-4-yl)-6-methyl-1,6-dihydro-7H-pyrrolo[2,3-c]pyridin-7-one]?
Answer: Intrinsic clearance, % Liver Blood Flow (human liver hepatocytes): <34 % Liver Blood Flow; Kd (BRD4 BD1): 0.01 to 0.1 µM
